Results published in PubChem BioAssay AID1259407 (Chemical Carcinogenesis Research Information System (CCRIS), 2018).
Active and inactive are the calls of the source. No rule for the calls is given here.

Test system: CCRIS mutagenicity, Ames/micronucleus/aberration tests
Test: CCRIS mutagenicity studies
[1] = Test System: AMES SALMONELLA TYPHIMURIUM, Strain/Indicator: TA98, Metabolic Activation: NONE, Method: PREINCUBATION
[2] = Test System: AMES SALMONELLA TYPHIMURIUM, Strain/Indicator: TA100, Metabolic Activation: NONE, Method: PREINCUBATION
[3] = Test System: AMES SALMONELLA TYPHIMURIUM, Strain/Indicator: TA1535, Metabolic Activation: NONE, Method: PREINCUBATION
[4] = Test System: AMES SALMONELLA TYPHIMURIUM, Strain/Indicator: TA1537, Metabolic Activation: NONE, Method: PREINCUBATION
[5] = End Point: IN VITRO CHROMOSOMAL ABERRATIONS, Test System: CHL CELLS, Metabolic Activation: RAT, LIVER, S-9, SODIUM PHENOBARBITAL AND 5,6-BENZOFLAVONE
[6] = Test System: AMES SALMONELLA TYPHIMURIUM, Strain/Indicator: TA100, Metabolic Activation: RAT, LIVER, S-9, AROCLOR 1254, Method: STANDARD PLATE

## CC(=O)c1cc(NC(=O)NC(C)(C)C)ccc1OCC(O)CNC(C)(C)C (stereo not given)
[1]
  mutagenic call: inactive; negative
Test System: AMES SALMONELLA TYPHIMURIUM, Strain/Indicator: TA98, Metabolic Activation: RAT, LIVER, S-9, PHENOBARBITAL AND 5,6-BENZOFLAVONE (10 OR 50 µL/PLATE), Method: PREINCUBATION
  mutagenic call: inactive; negative
[2]
  mutagenic call: inactive; negative
Test System: AMES SALMONELLA TYPHIMURIUM, Strain/Indicator: TA100, Metabolic Activation: RAT, LIVER, S-9, PHENOBARBITAL AND 5,6-BENZOFLAVONE (10 OR 50 µL/PLATE), Method: PREINCUBATION
  mutagenic call: inactive; negative
[3]
  mutagenic call: inactive; negative
Test System: AMES SALMONELLA TYPHIMURIUM, Strain/Indicator: TA1535, Metabolic Activation: RAT, LIVER, S-9, PHENOBARBITAL AND 5,6-BENZOFLAVONE (10 OR 50 µL/PLATE), Method: PREINCUBATION
  mutagenic call: inactive; negative
[4]
  mutagenic call: inactive; negative
Test System: AMES SALMONELLA TYPHIMURIUM, Strain/Indicator: TA1537, Metabolic Activation: RAT, LIVER, S-9, PHENOBARBITAL AND 5,6-BENZOFLAVONE (10 OR 50 µL/PLATE), Method: PREINCUBATION
  mutagenic call: inactive; negative
Test System: E. COLI, Strain/Indicator: WP2 UVRA, Metabolic Activation: NONE, Method: PREINCUBATION
  mutagenic call: inactive; negative
Test System: E. COLI, Strain/Indicator: WP2 UVRA, Metabolic Activation: RAT, LIVER, S-9, PHENOBARBITAL AND 5,6-BENZOFLAVONE (10 OR 50 µL/PLATE), Method: PREINCUBATION
  mutagenic call: inactive; negative

## Cc1ccc(N)c(C)c1
[5]
  mutagenic call: active; positive (structural and ploidy changes)
Test System: AMES SALMONELLA TYPHIMURIUM, Strain/Indicator: TA97, Metabolic Activation: HAMSTER, LIVER, S-9, AROCLOR 1254 (10%), Method: PREINCUBATION
  mutagenic call: active; positive
Test System: AMES SALMONELLA TYPHIMURIUM, Strain/Indicator: TA97, Metabolic Activation: NONE, Method: PREINCUBATION
  mutagenic call: inactive; negative
Test System: AMES SALMONELLA TYPHIMURIUM, Strain/Indicator: TA97, Metabolic Activation: RAT, LIVER, S-9, AROCLOR 1254 (10%), Method: PREINCUBATION
  mutagenic call: inactive; negative
Test System: AMES SALMONELLA TYPHIMURIUM, Strain/Indicator: TA98, Metabolic Activation: HAMSTER, LIVER, S-9, AROCLOR 1254 (10%), Method: PREINCUBATION
  mutagenic call: active; positive
[1]
  mutagenic call: inactive; negative
Test System: AMES SALMONELLA TYPHIMURIUM, Strain/Indicator: TA98, Metabolic Activation: RAT, LIVER, S-9, AROCLOR 1254 (10%), Method: PREINCUBATION
  mutagenic call: active; positive
Test System: AMES SALMONELLA TYPHIMURIUM, Strain/Indicator: TA98, Metabolic Activation: S-9, Method: PREINCUBATION
  mutagenic call: inactive; negative
Test System: AMES SALMONELLA TYPHIMURIUM, Strain/Indicator: TA100, Metabolic Activation: HAMSTER, LIVER, S-9, AROCLOR 1254 (10%), Method: PREINCUBATION
  mutagenic call: active; positive
Test System: AMES SALMONELLA TYPHIMURIUM, Strain/Indicator: TA100, Metabolic Activation: MOUSE, LIVER, S-9, AROCLOR 1254, Method: STANDARD PLATE
  mutagenic call: active; positive
[2]
  mutagenic call: inactive; negative
Test System: AMES SALMONELLA TYPHIMURIUM, Strain/Indicator: TA100, Metabolic Activation: RAT, LIVER, S-9, AROCLOR 1254 (10%), Method: PREINCUBATION
  mutagenic call: active; positive
[6]
  mutagenic call: active; positive
Test System: AMES SALMONELLA TYPHIMURIUM, Strain/Indicator: TA100, Metabolic Activation: S-9, Method: PREINCUBATION
  mutagenic call: active; positive
Test System: AMES SALMONELLA TYPHIMURIUM, Strain/Indicator: TA1535, Metabolic Activation: HAMSTER, LIVER, S-9, AROCLOR 1254 (10%), Method: PREINCUBATION
  mutagenic call: inactive; negative
[3]
  mutagenic call: inactive; negative
Test System: AMES SALMONELLA TYPHIMURIUM, Strain/Indicator: TA1535, Metabolic Activation: RAT, LIVER, S-9, AROCLOR 1254 (10%), Method: PREINCUBATION
  mutagenic call: inactive; negative
Test System: AMES SALMONELLA TYPHIMURIUM, Strain/Indicator: TA1537, Metabolic Activation: HAMSTER, LIVER, S-9, AROCLOR 1254 (10%), Method: PREINCUBATION
  mutagenic call: inactive; negative
Test System: AMES SALMONELLA TYPHIMURIUM, Strain/Indicator: TA1537, Metabolic Activation: RAT, LIVER, S-9, AROCLOR 1254 (10%), Method: PREINCUBATION
  mutagenic call: inactive; negative
Test System: UDS RODENT HEPATOCYTES, Strain/Indicator: THY INCORP (NON-S-PHASE), Metabolic Activation: NONE, Method: AUTORADIOGRAPHY
  mutagenic call: active; positive

## Cc1ccc(S(=O)(=O)NN)cc1
[5]
  mutagenic call: active; positive (structural changes)
Test System: AMES SALMONELLA TYPHIMURIUM, Strain/Indicator: TA97, Metabolic Activation: NONE, Method: STANDARD PLATE
  mutagenic call: inactive; negative
Test System: AMES SALMONELLA TYPHIMURIUM, Strain/Indicator: TA97, Metabolic Activation: RAT, LIVER, S-9, AROCLOR 1254, Method: STANDARD PLATE
  mutagenic call: inactive; negative
Test System: AMES SALMONELLA TYPHIMURIUM, Strain/Indicator: TA98, Metabolic Activation: HAMSTER, LIVER, S-9, AROCLOR 1254, Method: STANDARD PLATE
  mutagenic call: inactive; negative
[1]
  mutagenic call: inactive; negative
Test System: AMES SALMONELLA TYPHIMURIUM, Strain/Indicator: TA98, Metabolic Activation: NONE, Method: STANDARD PLATE
  mutagenic call: inactive; negative
Test System: AMES SALMONELLA TYPHIMURIUM, Strain/Indicator: TA98, Metabolic Activation: RAT LIVER S-9, PHENOBARBITAL AND BETA-NAPHTHOFLAVONE, Method: PREINCUBATION
  mutagenic call: inactive; negative
Test System: AMES SALMONELLA TYPHIMURIUM, Strain/Indicator: TA98, Metabolic Activation: RAT, LIVER, S-9, AROCLOR 1254, Method: STANDARD PLATE
  mutagenic call: inactive; negative
Test System: AMES SALMONELLA TYPHIMURIUM, Strain/Indicator: TA100, Metabolic Activation: HAMSTER, LIVER, S-9, AROCLOR 1254, Method: STANDARD PLATE
  mutagenic call: active; positive
[2]
  mutagenic call: active; positive
Test System: AMES SALMONELLA TYPHIMURIUM, Strain/Indicator: TA100, Metabolic Activation: NONE, Method: STANDARD PLATE
  mutagenic call: active; positive
Test System: AMES SALMONELLA TYPHIMURIUM, Strain/Indicator: TA100, Metabolic Activation: RAT LIVER S-9, PHENOBARBITAL AND BETA-NAPHTHOFLAVONE, Method: PREINCUBATION
  mutagenic call: active; positive
[6]
  mutagenic call: active; positive
Test System: AMES SALMONELLA TYPHIMURIUM, Strain/Indicator: TA102, Metabolic Activation: NONE, Method: STANDARD PLATE
  mutagenic call: inactive; negative
Test System: AMES SALMONELLA TYPHIMURIUM, Strain/Indicator: TA102, Metabolic Activation: RAT, LIVER, S-9, AROCLOR 1254, Method: STANDARD PLATE
  mutagenic call: inactive; negative
[3]
  mutagenic call: active; positive
Test System: AMES SALMONELLA TYPHIMURIUM, Strain/Indicator: TA1535, Metabolic Activation: RAT LIVER S-9, PHENOBARBITAL AND BETA-NAPHTHOFLAVONE, Method: PREINCUBATION
  mutagenic call: active; positive
[4]
  mutagenic call: inactive; negative
Test System: AMES SALMONELLA TYPHIMURIUM, Strain/Indicator: TA1537, Metabolic Activation: RAT LIVER S-9, PHENOBARBITAL AND BETA-NAPHTHOFLAVONE, Method: PREINCUBATION
  mutagenic call: inactive; negative
Test System: AMES SALMONELLA TYPHIMURIUM, Strain/Indicator: TA1538, Metabolic Activation: NONE, Method: PREINCUBATION
  mutagenic call: inactive; negative
Test System: AMES SALMONELLA TYPHIMURIUM, Strain/Indicator: TA1538, Metabolic Activation: RAT LIVER S-9, PHENOBARBITAL AND BETA-NAPHTHOFLAVONE, Method: PREINCUBATION
  mutagenic call: inactive; negative
Test System: E.COLI, Strain/Indicator: WP2UVRA, Metabolic Activation: NONE, Method: PREINCUBATION
  mutagenic call: active; positive
Test System: E.COLI, Strain/Indicator: WP2UVRA, Metabolic Activation: RAT LIVER S-9, PHENOBARBITAL AND BETA-NAPHTHOFLAVONE, Method: PREINCUBATION
  mutagenic call: active; positive
Test System: MOUSE LYMPHOMA, Strain/Indicator: L5178Y (TK+/TK-), Metabolic Activation: NONE, Method: SUSPENSION/PLATE
  mutagenic call: active; positive. reevaluation of results: positive
Test System: MOUSE LYMPHOMA, Strain/Indicator: L5178Y (TK+/TK-), Metabolic Activation: RAT, LIVER, S-9, AROCLOR 1254, Method: SUSPENSION/PLATE
  mutagenic call: active; positive. reevaluation of results: equivocal
